In ChEMBL document CHEMBL3046147, “Synthesis and Herbicidal Activity of 1-Arylalkyl-3-pyrrolin-2-one Derivatives” (J Pestic Sci, 2000):
Active and inactive are the calls of the source. The calls are words filed in the database; no cut-off is given here.

How the values were obtained:
Oryza sativa [1] = assay: Phytotoxicity against two-leaf stage Oryza sativa cv. Nihonbare (rice) planted 3 cm depth measured after […]; type: organism-based; settings: in vivo
Oryza sativa [2] = assay: Phytotoxicity against two-leaf stage Oryza sativa cv. Nihonbare (rice) planted 1 cm depth measured after […]; type: organism-based; settings: in vivo
Sagittaria pygmaea = assay: Herbicide activity against Sagittaria pygmaea under greenhouse condition compound treated at 0.5 leaf-stage measured after 14 to 20 days; type: functional
Echinochloa oryzicola [3] = assay: Pre-emergence herbicide activity against Echinochloa oryzicola under greenhouse condition measured after 14 to 20 days; type: functional
Echinochloa oryzicola [4] = assay: Herbicide activity against Echinochloa oryzicola under greenhouse condition compound treated at 2 leaf-stage measured after 14 to 20 days; type: functional
[5] = test system: Schoenoplectiella juncoides; assay: Herbicide activity against Schoenoplectiella juncoides under greenhouse condition compound treated at emergence-stage measured after 14 to 20 days; type: functional
Echinochloa oryzicola [6] = assay: Herbicidal activity against Echinochloa oryzicola under greenhouse condition assessed as growth inhibition at 125 g /ha measured after 13 days; type: functional, organism-based
Echinochloa oryzicola [7] = assay: Herbicidal activity against Echinochloa oryzicola under greenhouse condition assessed as growth inhibition at 125 g /ha measured after 27 days; type: functional, organism-based
Echinochloa oryzicola [8] = assay: Herbicidal activity against Echinochloa oryzicola grown in water-drained pot under greenhouse condition assessed as growth inhibition at 500 g /ha measured after 33 days; type: functional, organism-based
Echinochloa oryzicola [9] = assay: Herbicidal activity against Echinochloa oryzicola grown in water-drained pot under greenhouse condition assessed as growth inhibition at 500 g /ha measured after 27 days; type: functional, organism-based
Echinochloa oryzicola [10] = assay: Herbicidal activity against Echinochloa oryzicola grown in water-drained pot under greenhouse condition assessed as growth inhibition at 500 g /ha measured after 6 days; type: functional, organism-based
Echinochloa oryzicola [11] = assay: Herbicidal activity against Echinochloa oryzicola grown in water-drained pot under greenhouse condition assessed as growth inhibition at 125 g /ha measured after 42 days; type: functional, organism-based
Echinochloa oryzicola [12] = assay: Herbicidal activity against Echinochloa oryzicola under greenhouse condition assessed as growth inhibition at 500 g /ha measured after 20 days; type: functional, organism-based
Echinochloa oryzicola [13] = assay: Herbicidal activity against Echinochloa oryzicola grown in water-drained pot under greenhouse condition assessed as growth inhibition at 500 g /ha measured after 20 days; type: functional, organism-based
Echinochloa oryzicola [14] = assay: Herbicidal activity against Echinochloa oryzicola grown in water-drained pot under greenhouse condition assessed as growth inhibition at 125 g /ha measured after 27 days; type: functional, organism-based
Echinochloa oryzicola [15] = assay: Herbicidal activity against Echinochloa oryzicola grown in water-drained pot under greenhouse condition assessed as growth inhibition at 500 g /ha measured after 13 days; type: functional, organism-based
Echinochloa oryzicola [16] = assay: Herbicidal activity against Echinochloa oryzicola under greenhouse condition assessed as growth inhibition at 500 g /ha measured after 42 days; type: functional, organism-based
Echinochloa oryzicola [17] = assay: Herbicidal activity against Echinochloa oryzicola under greenhouse condition assessed as time duration of residual effect at 500 g /ha; type: functional
Echinochloa oryzicola [18] = assay: Herbicidal activity against Echinochloa oryzicola grown in water-drained pot under greenhouse condition assessed as growth inhibition at 500 g /ha measured after 42 days; type: functional, organism-based
Echinochloa oryzicola [19] = assay: Herbicidal activity against Echinochloa oryzicola under greenhouse condition assessed as growth inhibition at 125 g /ha measured after 6 days; type: functional, organism-based
Echinochloa oryzicola [20] = assay: Herbicidal activity against Echinochloa oryzicola grown in water-drained pot under greenhouse condition assessed as time duration of residual effect at 125 g /ha; type: functional
Echinochloa oryzicola [21] = assay: Herbicidal activity against Echinochloa oryzicola under greenhouse condition assessed as growth inhibition at 125 g /ha measured after 33 days; type: functional, organism-based
Echinochloa oryzicola [22] = assay: Herbicidal activity against Echinochloa oryzicola under greenhouse condition assessed as time duration of residual effect at 125 g /ha; type: functional
Echinochloa oryzicola [23] = assay: Herbicidal activity against Echinochloa oryzicola under greenhouse condition assessed as growth inhibition at 500 g /ha measured after 27 days; type: functional, organism-based
Echinochloa oryzicola [24] = assay: Herbicidal activity against Echinochloa oryzicola under greenhouse condition assessed as growth inhibition at 500 g /ha measured after 33 days; type: functional, organism-based
Echinochloa oryzicola [25] = assay: Herbicidal activity against Echinochloa oryzicola grown in water-drained pot under greenhouse condition assessed as growth inhibition at 125 g /ha measured after 6 days; type: functional, organism-based
Echinochloa oryzicola [26] = assay: Herbicidal activity against Echinochloa oryzicola grown in water-drained pot under greenhouse condition assessed as growth inhibition at 125 g /ha measured after 13 days; type: functional, organism-based
Echinochloa oryzicola [27] = assay: Herbicidal activity against Echinochloa oryzicola under greenhouse condition assessed as growth inhibition at 125 g /ha measured after 20 days; type: functional, organism-based
Echinochloa oryzicola [28] = assay: Herbicidal activity against Echinochloa oryzicola under greenhouse condition assessed as growth inhibition at 500 g /ha measured after 6 days; type: functional, organism-based
Echinochloa oryzicola [29] = assay: Herbicidal activity against Echinochloa oryzicola grown in water-drained pot under greenhouse condition assessed as growth inhibition at 125 g /ha measured after 33 days; type: functional, organism-based
Echinochloa oryzicola [30] = assay: Herbicidal activity against Echinochloa oryzicola grown in water-drained pot under greenhouse condition assessed as growth inhibition at 125 g /ha measured after 20 days; type: functional, organism-based
Echinochloa oryzicola [31] = assay: Herbicidal activity against Echinochloa oryzicola grown in water-drained pot under greenhouse condition assessed as time duration of residual effect at 500 g /ha; type: functional
Echinochloa oryzicola [32] = assay: Herbicidal activity against Echinochloa oryzicola under greenhouse condition assessed as growth inhibition at 125 g /ha measured after 42 days; type: functional, organism-based
Echinochloa oryzicola [33] = assay: Herbicidal activity against Echinochloa oryzicola under greenhouse condition assessed as growth inhibition at 500 g /ha measured after 13 days; type: functional, organism-based

COc1cccc2sc(C(C)(C)N3CC(C)=C(c4ccccc4)C3=O)nc12
MTD (Oryza sativa [1]): 40 g/acre
MTD (Oryza sativa [2]): 20 g/acre
MED (Sagittaria pygmaea): 80 g/acre
MED (Echinochloa oryzicola [3]): 10 g/acre
MED (Echinochloa oryzicola [4]): <5 g/acre
MED [5]: 80 g/acre

CC1=C(c2ccccc2)C(=O)N(C(C)(C)c2cccs2)C1
MTD (Oryza sativa [1]): 20 g/acre
MTD (Oryza sativa [2]): 10 g/acre
MED (Sagittaria pygmaea): 20 g/acre
MED (Echinochloa oryzicola [3]): 5 g/acre
MED (Echinochloa oryzicola [4]): <10 g/acre
MED [5]: 10 g/acre

CCCOCCN(C(=O)CCl)c1c(CC)cccc1CC [PRETILACHLOR]
growth inhibition (GI) (Echinochloa oryzicola [6]): Active
growth inhibition (GI) (Echinochloa oryzicola [7]): inactive
growth inhibition (GI) (Echinochloa oryzicola [8]): Active
growth inhibition (GI) (Echinochloa oryzicola [9]): Active
growth inhibition (GI) (Echinochloa oryzicola [10]): Active
growth inhibition (GI) (Echinochloa oryzicola [11]): inactive
growth inhibition (GI) (Echinochloa oryzicola [12]): Active
growth inhibition (GI) (Echinochloa oryzicola [13]): Active
growth inhibition (GI) (Echinochloa oryzicola [14]): inactive
growth inhibition (GI) (Echinochloa oryzicola [15]): Active
growth inhibition (GI) (Echinochloa oryzicola [16]): inactive
Time (Echinochloa oryzicola [17]): 27 days
growth inhibition (GI) (Echinochloa oryzicola [18]): inactive
growth inhibition (GI) (Echinochloa oryzicola [19]): Active
Time (Echinochloa oryzicola [20]): 6 days
growth inhibition (GI) (Echinochloa oryzicola [21]): inactive
Time (Echinochloa oryzicola [22]): 13 days
growth inhibition (GI) (Echinochloa oryzicola [23]): Active
growth inhibition (GI) (Echinochloa oryzicola [24]): Active
growth inhibition (GI) (Echinochloa oryzicola [25]): Active
growth inhibition (GI) (Echinochloa oryzicola [26]): Active
growth inhibition (GI) (Echinochloa oryzicola [27]): Active
growth inhibition (GI) (Echinochloa oryzicola [28]): Active
growth inhibition (GI) (Echinochloa oryzicola [29]): inactive
growth inhibition (GI) (Echinochloa oryzicola [30]): inactive
Time (Echinochloa oryzicola [31]): 16 days
growth inhibition (GI) (Echinochloa oryzicola [32]): inactive
growth inhibition (GI) (Echinochloa oryzicola [33]): Active

CC1=C(c2ccccc2)C(=O)N(C(C)(C)c2ncc(C(F)(F)F)cc2Cl)C1
MTD (Oryza sativa [1]): 20 g/acre
MTD (Oryza sativa [2]): 5 g/acre
MED (Sagittaria pygmaea): 80 g/acre
MED (Echinochloa oryzicola [3]): <5 g/acre
MED (Echinochloa oryzicola [4]): <5 g/acre
MED [5]: 80 g/acre

CC1=C(c2ccccc2)C(=O)N(C(C)(C)c2nc3cc(C)ccc3s2)C1
MTD (Oryza sativa [1]): 40 g/acre
MTD (Oryza sativa [2]): 2.5 g/acre
MED (Sagittaria pygmaea): 10 g/acre
MED (Echinochloa oryzicola [3]): 10 g/acre
MED (Echinochloa oryzicola [4]): <5 g/acre
MED [5]: 20 g/acre

CC1=C(c2cccc([N+](=O)[O-])c2)C(=O)N(C(C)(C)c2nc3ccccc3s2)C1
MTD (Oryza sativa [1]): 80 g/acre
MTD (Oryza sativa [2]): 80 g/acre
MED (Sagittaria pygmaea): 160 g/acre
MED (Echinochloa oryzicola [3]): 160 g/acre
MED (Echinochloa oryzicola [4]): <5 g/acre
MED [5]: 160 g/acre

CC1=C(c2ccc(F)cc2F)C(=O)N(C(C)(C)c2nc3ccccc3s2)C1
MTD (Oryza sativa [1]): 10 g/acre
MTD (Oryza sativa [2]): > 5 g/acre
MED (Sagittaria pygmaea): 10 g/acre
MED (Echinochloa oryzicola [3]): 1.25 g/acre
MED (Echinochloa oryzicola [4]): <5 g/acre
MED [5]: 10 g/acre

CC1=C(c2ccccc2)C(=O)N(C(C)(C)c2csc3ccccc23)C1
MTD (Oryza sativa [1]): 10 g/acre
MTD (Oryza sativa [2]): 2.5 g/acre
MED (Sagittaria pygmaea): 80 g/acre
MED (Echinochloa oryzicola [3]): 2.5 g/acre
MED (Echinochloa oryzicola [4]): <5 g/acre
MED [5]: 80 g/acre

CC1=C(c2ccccc2)C(=O)N(C(C)(C)c2cc3ccccc3o2)C1
MTD (Oryza sativa [1]): 20 g/acre
MTD (Oryza sativa [2]): 10 g/acre
MED (Sagittaria pygmaea): 80 g/acre
MED (Echinochloa oryzicola [3]): 0.313 g/acre
MED (Echinochloa oryzicola [4]): 2.5 g/acre
MED [5]: 80 g/acre

CCOc1ccc2nc(C(C)(C)N3CC(C)=C(c4ccccc4)C3=O)sc2c1
MTD (Oryza sativa [1]): 10 g/acre
MTD (Oryza sativa [2]): 5 g/acre
MED (Sagittaria pygmaea): 80 g/acre
MED (Echinochloa oryzicola [3]): 1.25 g/acre
MED (Echinochloa oryzicola [4]): <5 g/acre
MED [5]: 160 g/acre

CC1=C(c2ccccc2C(F)(F)F)C(=O)N(C(C)(C)c2nc3ccccc3s2)C1
MTD (Oryza sativa [1]): 40 g/acre
MTD (Oryza sativa [2]): 20 g/acre
MED (Sagittaria pygmaea): 5 g/acre
MED (Echinochloa oryzicola [3]): 20 g/acre
MED (Echinochloa oryzicola [4]): <5 g/acre
MED [5]: 80 g/acre
